System: 653999-131-R-J2-PDC complex spheroids, growth % test/control
Assay: Anticancer human tumor 653999-131-R-J2-PDC patient-derived lung adenocarcinoma cell line growth inhibition [AhR]
Details: for IC50: curve of first compound; for viability, T/C: stronger effect = lower value
Outline: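 Spheroids combined tumor cells with HUVEC endothelial cells and human MSCs as stroma. AhR antagonists were paired with standard or investigational drugs, each dosed in half-log steps down from near clinical Cmax, or from 10 microM where Cmax was unknown.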

[1] = second compound 0.1 µM, first compound 0.00316 µM
[2] = second compound 0.1 µM, first compound 0.01 µM
[3] = second compound 0.1 µM, first compound 0.0316 µM
[4] = second compound 0.1 µM, first compound 0.1 µM
[5] = second compound 0.1 µM, first compound 0.316 µM
[6] = second compound 0.1 µM, first compound 1 µM
[7] = second compound 0.316 µM, first compound 0.00316 µM
[8] = second compound 0.316 µM, first compound 0.01 µM
[9] = second compound 0.316 µM, first compound 0.0316 µM
[10] = second compound 0.316 µM, first compound 0.1 µM
[11] = second compound 0.316 µM, first compound 0.316 µM
[12] = second compound 0.316 µM, first compound 1 µM
[13] = second compound 1 µM, first compound 0.00316 µM
[14] = second compound 1 µM, first compound 0.01 µM
[15] = second compound 1 µM, first compound 0.0316 µM
[16] = second compound 1 µM, first compound 0.1 µM
[17] = second compound 1 µM, first compound 0.316 µM
[18] = second compound 1 µM, first compound 1 µM
[19] = second compound 3.16 µM, first compound 0.00316 µM
[20] = second compound 3.16 µM, first compound 0.01 µM
[21] = second compound 3.16 µM, first compound 0.0316 µM
[22] = second compound 3.16 µM, first compound 0.1 µM
[23] = second compound 3.16 µM, first compound 0.316 µM
[24] = second compound 3.16 µM, first compound 1 µM
[25] = second compound 10 µM, first compound 0.00316 µM
[26] = second compound 10 µM, first compound 0.01 µM
[27] = second compound 10 µM, first compound 0.0316 µM
[28] = second compound 10 µM, first compound 0.1 µM
[29] = second compound 10 µM, first compound 0.316 µM
[30] = second compound 10 µM, first compound 1 µM
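Further: spheroids exposed to agents for seven days.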
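Wherever viability, T/C is given: 100% = DMSO vehicle control viability.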

## CC1COCCN1c1cc(-c2ccnn2C)c2ccnc(-c3ccn[nH]3)c2n1 (stereo not given) + Cc1cncc(-c2nc(NCCc3c[nH]c4ccccc34)c3ncn(C(C)C)c3n2)c1
Second compound 0.1 µM
  IC50: 123 nM
Second compound 0.316 µM
  IC50: 129 nM
Second compound 1 µM
  IC50: 170 nM
Second compound 3.16 µM
  IC50: 149 nM
Second compound 10 µM
  IC50: < 3.16 nM
[1]
  viability, T/C: 100%
[2]
  viability, T/C: 94.6%
[3]
  viability, T/C: 76.3%
[4]
  viability, T/C: 52.3%
[5]
  viability, T/C: 36.7%
[6]
  viability, T/C: 25.2%
[7]
  viability, T/C: 92.8%
[8]
  viability, T/C: 92.4%
[9]
  viability, T/C: 84.8%
[10]
  viability, T/C: 53.5%
[11]
  viability, T/C: 35.5%
[12]
  viability, T/C: 26.4%
[13]
  viability, T/C: 107%
[14]
  viability, T/C: 96.3%
[15]
  viability, T/C: 89.5%
[16]
  viability, T/C: 65.6%
[17]
  viability, T/C: 31.6%
[18]
  viability, T/C: 23.5%
[19]
  viability, T/C: 98.2%
[20]
  viability, T/C: 98.1%
[21]
  viability, T/C: 89.6%
[22]
  viability, T/C: 56.2%
[23]
  viability, T/C: 38.5%
[24]
  viability, T/C: 29.1%
[25]
  viability, T/C: 36.8%
[26]
  viability, T/C: 46.9%
[27]
  viability, T/C: 38%
[28]
  viability, T/C: 34.6%
[29]
  viability, T/C: 25.7%
[30]
  viability, T/C: 27%

## CC1(C)CCC(CN2CCN(c3ccc(C(=O)NS(=O)(=O)c4ccc(NCC5CCOCC5)c([N+](=O)[O-])c4)c(Oc4cnc5[nH]ccc5c4)c3)CC2)=C(c2ccc(Cl)cc2)C1 + Cc1cncc(-c2nc(NCCc3c[nH]c4ccccc34)c3ncn(C(C)C)c3n2)c1
Second compound 0.1 µM
  IC50: > 10000 nM
Second compound 0.316 µM
  IC50: > 10000 nM
Second compound 1 µM
  IC50: > 10000 nM
Second compound 3.16 µM
  IC50: > 10000 nM
Second compound 10 µM
  IC50: > 10000 nM
[3]
  viability, T/C: 92.8%
[4]
  viability, T/C: 93.8%
[5]
  viability, T/C: 89%
[6]
  viability, T/C: 101%
Second compound 0.1 µM, first compound 3.16 µM
  viability, T/C: 94.2%
Second compound 0.1 µM, first compound 10 µM
  viability, T/C: 85.8%
[9]
  viability, T/C: 97.8%
[10]
  viability, T/C: 90.7%
[11]
  viability, T/C: 94.8%
[12]
  viability, T/C: 97.8%
Second compound 0.316 µM, first compound 3.16 µM
  viability, T/C: 116%
Second compound 0.316 µM, first compound 10 µM
  viability, T/C: 83%
[15]
  viability, T/C: 103%
[16]
  viability, T/C: 108%
[17]
  viability, T/C: 109%
[18]
  viability, T/C: 102%
Second compound 1 µM, first compound 3.16 µM
  viability, T/C: 116%
Second compound 1 µM, first compound 10 µM
  viability, T/C: 105%
[21]
  viability, T/C: 105%
[22]
  viability, T/C: 105%
[23]
  viability, T/C: 109%
[24]
  viability, T/C: 115%
Second compound 3.16 µM, first compound 3.16 µM
  viability, T/C: 104%
Second compound 3.16 µM, first compound 10 µM
  viability, T/C: 91.8%
[27]
  viability, T/C: 59.4%
[28]
  viability, T/C: 61.9%
[29]
  viability, T/C: 59.5%
[30]
  viability, T/C: 71.3%
Second compound 10 µM, first compound 3.16 µM
  viability, T/C: 74.1%
Second compound 10 µM, first compound 10 µM
  viability, T/C: 62.5%

## CC1COCCN1c1cc(-c2ccnn2C)c2ccnc(-c3ccn[nH]3)c2n1 (stereo not given) + CC(CO)NC(=O)c1cc(-c2ccc(Cl)cc2)nn(-c2cnn(C)c2)c1=O
Second compound 0.1 µM
  IC50: 162 nM
Second compound 0.316 µM
  IC50: 134 nM
Second compound 1 µM
  IC50: 168 nM
Second compound 3.16 µM
  IC50: 100 nM
Second compound 10 µM
  IC50: 53.6 nM
[1]
  viability, T/C: 102%
[2]
  viability, T/C: 101%
[3]
  viability, T/C: 94%
[4]
  viability, T/C: 60.2%
[5]
  viability, T/C: 36.4%
[6]
  viability, T/C: 28.4%
[7]
  viability, T/C: 103%
[8]
  viability, T/C: 103%
[9]
  viability, T/C: 76.1%
[10]
  viability, T/C: 56.5%
[11]
  viability, T/C: 36.3%
[12]
  viability, T/C: 27.9%
[13]
  viability, T/C: 97.3%
[14]
  viability, T/C: 105%
[15]
  viability, T/C: 80.6%
[16]
  viability, T/C: 60.1%
[17]
  viability, T/C: 39.5%
[18]
  viability, T/C: 30.4%
[19]
  viability, T/C: 94%
[20]
  viability, T/C: 97.7%
[21]
  viability, T/C: 89.9%
[22]
  viability, T/C: 49.9%
[23]
  viability, T/C: 35.6%
[24]
  viability, T/C: 32.9%
[25]
  viability, T/C: 92.3%
[26]
  viability, T/C: 86.4%
[27]
  viability, T/C: 57%
[28]
  viability, T/C: 41.5%
[29]
  viability, T/C: 30.7%
[30]
  viability, T/C: 29.2%
